Assay results taken from US20240116922A1, “IMIDAZO[1,2-A]PYRIDINE DERIVATIVES AS IRAK4 INHIBITORS AND THEIR USE IN THE TREATMENT OF DISEASE” (BIOGEN MA INC., priority 2020, published 2024).
Values after ≈ are worked out from the molar mass of the structure shown.

Key:
MDR1 = MDR1 (Homo sapiens (Human), UniProt P08183); assay: in vitro; conditions: MDCK-MDR1
[1] = Kpuu assay (in vivo brain-to-plasma unbound partition); conditions: brain (unbound) versus plasma (unbound); intravenous infusion 4 to 24 h; unbound brain/plasma ratio; read-out: Brain Kpu, u
[2] = Kinetic solubility assay (CLND), pH 6.8; assay type: physicochemical; conditions: aqueous buffer, kinetic from dmso stock; potassium phosphate buffer pH 6.8, 2% DMSO, 24 hours at ambient temperature
IRAK4 = IRAK4 (Homo sapiens (Human), UniProt Q9NWZ3); assay: IRAK4 MSD biochemical assay (2-hour 1 mM ATP); conditions: 0.1 nM IRAK4, 1 mM ATP, 2 hour at room temperature
Sequence of IRAK4 (Q9NWZ3 whole entry): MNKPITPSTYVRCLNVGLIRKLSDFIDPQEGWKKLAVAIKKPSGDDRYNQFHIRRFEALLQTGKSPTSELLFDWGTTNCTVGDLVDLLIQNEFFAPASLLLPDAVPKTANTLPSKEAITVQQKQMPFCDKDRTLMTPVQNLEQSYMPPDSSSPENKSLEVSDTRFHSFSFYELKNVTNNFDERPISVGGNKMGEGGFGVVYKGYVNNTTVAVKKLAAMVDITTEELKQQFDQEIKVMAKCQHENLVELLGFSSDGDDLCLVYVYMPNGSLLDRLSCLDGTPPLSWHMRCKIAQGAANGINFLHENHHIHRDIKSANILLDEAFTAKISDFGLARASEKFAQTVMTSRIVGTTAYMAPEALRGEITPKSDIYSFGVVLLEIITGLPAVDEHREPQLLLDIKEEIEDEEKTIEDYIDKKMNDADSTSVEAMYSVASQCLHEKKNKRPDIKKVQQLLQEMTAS

Sequence of MDR1 (P08183 whole entry, the tested form may be a part): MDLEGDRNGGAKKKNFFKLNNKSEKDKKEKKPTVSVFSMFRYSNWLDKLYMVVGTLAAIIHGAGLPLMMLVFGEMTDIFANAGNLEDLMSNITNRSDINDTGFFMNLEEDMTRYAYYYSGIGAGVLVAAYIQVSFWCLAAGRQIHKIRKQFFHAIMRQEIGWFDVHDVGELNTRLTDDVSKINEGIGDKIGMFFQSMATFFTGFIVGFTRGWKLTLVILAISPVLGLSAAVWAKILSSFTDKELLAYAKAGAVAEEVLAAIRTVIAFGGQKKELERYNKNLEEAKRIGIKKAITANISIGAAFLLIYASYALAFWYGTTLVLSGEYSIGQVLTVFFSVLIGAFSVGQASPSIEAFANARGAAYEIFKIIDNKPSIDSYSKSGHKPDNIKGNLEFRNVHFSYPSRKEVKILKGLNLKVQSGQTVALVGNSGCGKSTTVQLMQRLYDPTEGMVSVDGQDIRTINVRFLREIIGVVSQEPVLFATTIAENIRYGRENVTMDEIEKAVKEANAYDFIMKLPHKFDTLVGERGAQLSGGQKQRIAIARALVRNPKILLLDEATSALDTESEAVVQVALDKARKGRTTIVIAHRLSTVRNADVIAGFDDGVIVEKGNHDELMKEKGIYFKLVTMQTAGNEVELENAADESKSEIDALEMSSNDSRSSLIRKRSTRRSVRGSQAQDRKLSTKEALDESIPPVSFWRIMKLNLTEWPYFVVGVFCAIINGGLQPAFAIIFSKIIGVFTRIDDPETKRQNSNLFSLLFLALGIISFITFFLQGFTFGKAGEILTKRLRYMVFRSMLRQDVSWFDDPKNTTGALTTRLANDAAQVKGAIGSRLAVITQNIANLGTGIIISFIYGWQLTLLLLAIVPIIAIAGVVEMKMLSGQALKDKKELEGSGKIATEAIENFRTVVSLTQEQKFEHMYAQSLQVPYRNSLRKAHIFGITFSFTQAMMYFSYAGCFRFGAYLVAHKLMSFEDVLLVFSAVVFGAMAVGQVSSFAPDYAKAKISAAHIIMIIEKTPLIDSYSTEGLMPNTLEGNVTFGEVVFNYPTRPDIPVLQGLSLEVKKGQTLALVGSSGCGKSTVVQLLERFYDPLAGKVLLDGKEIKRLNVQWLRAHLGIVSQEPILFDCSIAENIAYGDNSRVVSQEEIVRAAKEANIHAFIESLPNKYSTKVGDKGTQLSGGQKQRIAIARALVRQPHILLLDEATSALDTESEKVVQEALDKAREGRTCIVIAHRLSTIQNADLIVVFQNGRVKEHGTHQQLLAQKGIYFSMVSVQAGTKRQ

SMILES	efflux ratio at 120 min, 1 μM (MDR1)	Kpuu (unbound brain-to-plasma partition coefficient) [1]	solubility kinetic at 24 h [2] [µg/mL]	IC50 (IRAK4) [nM]
CC(C)Oc1nc2nc(C[C@@H]3CCOC3)cn2cc1C(=O)Nc1cccn(C2CC2)c1=O (single isomer, unassigned) [Example 109]	7.1	0.25	50.2 (≈ 115 µM)	0.5
CC(C)Oc1nc2nc(C34COC(C)(C3)C4)cn2cc1C(=O)Nc1cccn(C2CC2(F)F)c1=O (stereo not drawn) [Example 84, N-(1-(2,2-difluorocyclopropyl)-2-oxo-1,2-dihydropyridin-3-yl)-7-isopropoxy-2-(1-methyl-2-oxabicyclo[2.1.1]hexan-4-yl)imidazo[1,2-a]pyrimidine-6-carboxamide]	7.4	0.67	37.7 (≈ 77.7 µM)	0.6
CC(C)Oc1nc2nc(C34CCC(C)(CC3)OC4)cn2cc1C(=O)Nc1cccn(C2CC2)c1=O [Example 77, N-(1-cyclopropyl-2-oxo-1,2-dihydropyridin-3-yl)-7-isopropoxy-2-(1-methyl-2-oxabicyclo[2.2.2]octan-4-yl)imidazo[1,2-a]pyrimidine-6-carboxamide]	2.7	0.61	7.2 (≈ 15.1 µM)	0.3
CC(C)Oc1cc2nc(C34CC(C#N)(C3)C4)cn2cc1C(=O)Nc1cccn(C2CC2)c1=O [Example 80, 2-(3-cyanobicyclo[1.1.1]pentan-1-yl)-N-(1-cyclopropyl-2-oxo-1,2-dihydropyridin-3-yl)-7-isopropoxyimidazo[1,2-a]pyridine-6-carboxamide]	4.9	0.9	9.5 (≈ 21.4 µM)	0.3
CC(C)Oc1nc2nc([C@@]34CC[C@@](C)(C3)OC4)cn2cc1C(=O)Nc1cccn([C@H]2C[C@@H]2C)c1=O (single isomer, unassigned) [Example 149]	2.8	1.34	34.5 (≈ 72.2 µM)	0.4
CC[C@H](C)Oc1nc2nc([C@]34CC[C@](C)(C3)OC4)cn2cc1C(=O)Nc1cccn(C2CC2)c1=O [Example 50, 7-((S)-sec-butoxy)-N-(1-cyclopropyl-2-oxo-1,2-dihydropyridin-3-yl)-2-((1R,4S)-1-methyl-2-oxabicyclo[2.2.1]heptan-4-yl)imidazo[1,2-a]pyrimidine-6-carboxamide]	2.9	0.66		0.5
CC[C@H](C)Oc1nc2nc([C@@]34CC[C@@](C)(C3)OC4)cn2cc1C(=O)Nc1cccn(C2CC2)c1=O [Example 49, 7-((S)-sec-butoxy)-N-(1-cyclopropyl-2-oxo-1,2-dihydropyridin-3-yl)-2-((1S,4R)-1-methyl-2-oxabicyclo[2.2.1]heptan-4-yl)imidazo[1,2-a]pyrimidine-6-carboxamide]	3.6	0.66	56.1 (≈ 117 µM)	0.4
COC[C@@]12CC[C@@](c3cn4cc(C(=O)Nc5cccn([C@H]6C[C@H]6F)c5=O)c(OC(C)C)nc4n3)(CO1)C2 (single isomer, unassigned) [Example 132]		0.14	70.5 (≈ 138 µM)	
CC(C)Oc1nc2nc([C@@]34CC[C@@](CF)(C3)OC4)cn2cc1C(=O)Nc1cccn(C2CC2)c1=O (single isomer, unassigned) [Example 46]		1.81	9 (≈ 18.7 µM)	
CC(C)Oc1nc2nc(C34COC(C)(C3)C4)cn2cc1C(=O)Nc1cccn([C@H]2C[C@H]2C)c1=O [Example 136, 7-isopropoxy-2-(1-methyl-2-oxabicyclo[2.1.1]hexan-4-yl)-N-(1-((1S,2R)-2-methylcyclopropyl)-2-oxo-1,2-dihydropyridin-3-yl)imidazo[1,2-a]pyrimidine-6-carboxamide]		0.4		
CC(C)Oc1cc2nc(C34COC(C)(C3)C4)cn2cc1C(=O)Nc1cccc(C(F)F)n1 [Comparator 1A, N-(6-(difluoromethyl)pyridin-2-yl)-7-isopropoxy-2-(1-methyl-2-oxabicyclo[2.1.1]hexan-4-yl)imidazo[1,2-a]pyridine-6-carboxamide, reference compound]	0.9	0.4	2.1 (≈ 4.75 µM)	
COC[C@]12CC[C@](c3cn4cc(C(=O)Nc5cccn([C@H]6C[C@H]6F)c5=O)c(OC(C)C)nc4n3)(CO1)C2 (single isomer, unassigned) [Example 130]		0.08	63.6 (≈ 124 µM)	
O=C(Nc1cccn(C2CC2)c1=O)c1cn2cc(C34COC(CF)(C3)C4)nc2nc1OC1CCC1 [Example 33, 7-cyclobutoxy-N-(1-cyclopropyl-2-oxo-1,2-dihydropyridin-3-yl)-2-(1-(fluoromethyl)-2-oxabicyclo[2.1.1]hexan-4-yl)imidazo[1,2-a]pyrimidine-6-carboxamide]		0.45	10.1 (≈ 21.1 µM)	
CC(C)Oc1cc2nc(C34COC(C)(C3)C4)cn2cc1C(=O)Nc1cccn([C@H]2C[C@@H]2F)c1=O (single isomer, unassigned) [Example 155]		0.36	35.8 (≈ 76.7 µM)	
CC(C)Oc1nc2nc(C34COC(CF)(C3)C4)cn2cc1C(=O)Nc1cccn(C2CC2)c1=O [Example 10, N-(1-cyclopropyl-2-oxo-1,2-dihydropyridin-3-yl)-2-(1-(fluoromethyl)-2-oxabicyclo[2.1.1]hexan-4-yl)-7-isopropoxyimidazo[1,2-a]pyrimidine-6-carboxamide]		0.22	79.3 (≈ 170 µM)	
CC(C)Oc1nc2nc([C@@H]3CCCOC3)cn2cc1C(=O)Nc1cccn(C2CC2)c1=O (single isomer, unassigned) [Example 108]	4	0.52		0.1
CC(C)Oc1nc2nc([C@@]34CC[C@@](C)(C3)OC4)cn2cc1C(=O)Nc1cccn(C2CC2)c1=O (single isomer, unassigned) [Example 12]		0.33	22.3 (≈ 48.1 µM)	
CC(C)Oc1nc2nc(C34COC(C)(C3)C4)cn2cc1C(=O)Nc1cccn([C@H]2C[C@H]2F)c1=O [Example 159, N-(1-((1S,2R)-2-fluorocyclopropyl)-2-oxo-1,2-dihydropyridin-3-yl)-7-isopropoxy-2-(1-methyl-2-oxabicyclo[2.1.1]hexan-4-yl)imidazo[1,2-a]pyrimidine-6-carboxamide]		0.28		
CC(C)Oc1nc2nc(C34COC(C)(C3)C4)cn2cc1C(=O)Nc1cccn(C2CC2)c1=O [Example 18, N-(1-cyclopropyl-2-oxo-1,2-dihydropyridin-3-yl)-7-isopropoxy-2-(1-methyl-2-oxabicyclo[2.1.1]hexan-4-yl)imidazo[1,2-a]pyrimidine-6-carboxamide]		0.7		

Second part, the compound after the results:

efflux ratio at 120 min, 1 μM (MDR1)	Kpuu (unbound brain-to-plasma partition coefficient) [1]	solubility kinetic at 24 h [2] [µg/mL]	IC50 (IRAK4) [nM]	SMILES
0.7	0.4	2 (≈ 4.37 µM)		CC(C)Oc1nc2nc([C@@]34CC[C@@](C)(C3)OC4)cn2cc1C(=O)Nc1cccc(C(F)F)n1 (single isomer, unassigned) [Comparator 4A, reference compound]
3	0.4	11.2 (≈ 24.8 µM)		CC(C)Oc1nc2nc(C34CCC(C)(CC3)OC4)cn2cc1C(=O)Nc1cccn(C)c1=O [Comparator 6D, 7-isopropoxy-N-(-methyl-2-oxo-1,2-dihydropyridin-3-yl)-2-(1-methyl-2-oxabicyclo[2.2.2]octan-4-yl)imidazo[1,2-a]pyrimidine-6-carboxamide, reference compound]
	0.3			Cc1cnc2c(NC(=O)c3cn4cc(C56COC(C)(C5)C6)nc4nc3OC(C)C)cnn2c1 [Comparator 2B, 7-isopropoxy-2-(1-methyl-2-oxabicyclo[2.1.1]hexan-4-yl)-N-(6-methylpyrazolo[1,5-a]pyrimidin-3-yl)imidazo[1,2-a]pyrimidine-6-carboxamide, reference compound]
2.2	0.4	39.6 (≈ 93.5 µM)		CC(C)Oc1cc2nc(C34CCC(C)(CC3)OC4)cn2cc1C(=O)Nc1ccn(C)n1 [Comparator 5C, 7-isopropoxy-N-(1-methyl-1H-pyrazol-3-yl)-2-(1-methyl-2-oxabicyclo[2.2.2]octan-4-yl)imidazo[1,2-a]pyridine-6-carboxamide, reference compound]
2	0.6	45.6 (≈ 101 µM)		CC(C)Oc1cc2nc(C34CCC(C)(CC3)OC4)cn2cc1C(=O)Nc1cccn(C)c1=O [Comparator 5D, 7-isopropoxy-N-(1-methyl-2-oxo-1,2-dihydropyridin-3-yl)-2-(1-methyl-2-oxabicyclo[2.2.2]octan-4-yl)imidazo[1,2-a]pyridine-6-carboxamide, reference compound]
3.1	1.1	49.3 (≈ 113 µM)		CC(C)Oc1cc2nc([C@@]34CC[C@@](C)(C3)OC4)cn2cc1C(=O)Nc1cccn(C)c1=O (single isomer, unassigned) [Comparator 3D, reference compound]
1.1	0.4	2.4 (≈ 5.41 µM)		CC(C)Oc1nc2nc(C34COC(C)(C3)C4)cn2cc1C(=O)Nc1cccc(C(F)F)n1 [Comparator 2A, N-(6-(difluoromethyl)pyridin-2-yl)-7-isopropoxy-2-(1-methyl-2-oxabicyclo[2.1.1]hexan-4-yl)imidazo[1,2-a]pyrimidine-6-carboxamide, reference compound]
